Experimental data from patent US12653860B2, “Compositions and methods for editing beta-globin for treatment of hemaglobinopathies” (Vertex Pharmaceuticals Incorporated, priority 2019, dated 2026).
Strand notation (5' to 3'): a small letter for the sugar, then the base; units joined by * are phosphorothioate-linked, units joined directly phosphodiester-linked; [ ] holds rarer units or linkages, { } end groups; capitals alone tell only the bases. m = 2'-O-methyl; r = 2'-OH (RNA)

What was measured:
[1] = system: BFP gene encoded in the AAVS1 locus of HEK293 T cells; assay: BFP to GFP reporter assay of HDR repair (flow cytometry); assay type: cell-based; conditions: different concentrations or doses; FIG. 1B, 1C
Method: An in vitro assay was conducted to determine the ability of various inhibitors and enhancers to improve the efficiency of HDR repair in HEK293 T cells. Specifically, a fluorescent reporter-based screening approach was developed to identify molecules that enhance gene-editing by HDR. A reporter system was generated in HEK293 T cells comprising a genomic AAVS1 locus that encoded either a blue fluorescent protein (BFP) or a green fluorescent protein (GFP) within the AAVS1 locus. A gene encoding BFP can be converted to a gene encoding GFP by substitution of cytosine at position 199 to uridine (e.g., a C to U transition at position 199). By introducing a DSB within the BFP gene using a CRISPR/Cas9 gene-editing system, a homology donor DNA encoding the nucleotide substitution can be used to edit the BFP gene to a GFP gene by HDR repair. Thus, a gene edit that induces a C to U transition at position 199 results in a change in cellular fluorescence. A change in the fluorescence of the cell measured by flow cytometry can be used to quantify efficiency of HDR repair. Additionally, the reverse gene edit can be performed for an AAVS1 locus encoding a GFP gene, wherein a GFP can be converted to BFP by substitution of uridine at position 199 to cytosine.
To create the reporter system, an AAV-based homology donor DNA encoding either BFP or GFP was created. The AAV-BFP or AAV-GFP donor was flanked by homology arms that were 1000 base pairs in length and expression of BFP or GFP was driven by the MND promoter (e.g., a synthetic promoter that contains the U3 region of a modified Moloney murine leukemia virus long term terminal repeat with myeloproliferative sarcoma virus enhancer and deleted negative control region, SEQ ID NO: 58). The viral DNA was packaged into capsids of adeno-associated virus serotype 6 (AAV6) vector. Either the BFP or GFP donor was introduced using the AAV6 vector into the AAVS1 locus in HEK293 T cells by homologous recombination using CRISPR-Cas9 as follows: purified Cas9 protein was complexed with two different single gRNAs (sgRNAs) targeting the AAVS1 locus at SEQ ID NO: 3 (spacer sequence identified by SEQ ID NO: 4; gRNA obtained from Maxcyte) or SEQ ID NO: 5 (spacer sequence identified by SEQ ID NO: 6; gRNA obtained from Thermo Fisher). Cas9 protein used in the Exemplary section provided herein refers to Cas9 polypeptide derived from S pyogenes (SpCas9), unless indicated otherwise.
The Cas9-sgRNA complex was electroporated into the HEK293 T cells using the Lonza Nucleofector program CM-130. Approximately, 2 hours after electroporation, the cells were infected with various viral doses of AAV6 encoding a BFP (SEQ ID NO: 44) or GFP homology donor (SEQ ID NO: 47). One week later, cells were analyzed by flow cytometry to verify integration and expression of BFP or GFP in the AAVS1 locus. HEK293 T cells expressing BFP or GFP were sorted into single cells in 96-well plates. After −2 weeks of growth, DNA extracted from individual cells was analyzed for precise integration of the respective BFP or GFP gene into the AAVS1 locus by long-range PCR. This PCR analysis allowed for determination of whether the BFP/GFP gene was integrated in one or both alleles of the AAVS1 locus.
To introduce a gene edit that converts BFP to GFP, cells were electroporated with ribonucleoprotein (RNP) comprised of Cas9 and sgRNA that targets the BFP gene encoded in the AAVS1 locus. The sgRNA targeted a sequence in the BFP gene identified by SEQ ID NO: 7 (sgRNA spacer sequence identified by SEQ ID NO: 8). The sgRNA were prepared using a standard sgRNA cassette specific to SpCas9, as indicated by SEQ ID NO: 2 (wherein a, c, g, u represent 2′ O-methyl phosphorothioate nucleotides; s represents phosphorothioate nucleotides; and A, C, G, U, N represent canonical RNA nucleotides). The gRNAs used in the Exemplary section provided herein were sgRNAs prepared with the SpCas9 sgRNA cassette unless indicated otherwise. […]

[2] = system: HBB locus in CD34-expressing LT-HSPCs; assay: HDR insertion of AAV GFP donor at HBB locus (GFP fluorescence); assay type: cell-based, human; conditions: i53 mRNA 0.5, 1, 2 g (FIG. 6A) or 0.3 g, 1 g (FIG. 6B); CYREN1 or CYREN2 mRNA; any dose of XL413 (data not shown)
Method: Frozen CD34-expressing LT-HSPCs derived from plerixafor (i.e., Mozibil®)+GCSF-dual mobilized peripheral blood obtained from healthy human donors were purchased from a commercial vendor. LT-HSPCs were maintained in culture media comprised of the reagents shown in Table 4 and were incubated at 37° C., 5% carbon dioxide, 4% oxygen. […] 2×10^5 cells were edited with 3 g Cas9 and 3 g gRNA. The target gene sequence (including target sequence with PAM), R02 spacer sequence, and R02 sgRNA sequence are identified in Table 3.
The cells were transfected with a dsDNA homology donor encoding GFP under a SFFV promoter (SEQ ID NO: 60) that was delivered by AAV (SEQ ID NO: 56). […] The HDR efficiency was determined by measuring the level of GFP fluorescence in the cells following electroporation. To determine the effect of 53BP1 inhibition on HDR efficiency, the 53BP1 inhibitor i53 was introduced as an mRNA-encoded protein to the cells during electroporation with Cas9/gRNA RNP and AAV DNA that serves as a donor for homology directed repair.
The effect of 53BP1 inhibition on HDR efficiency was compared to other mRNA-encoded proteins that inhibit the NHEJ pathway. These included the proteins CYREN1 and CYREN2 that inhibit Ku70/80, a heterodimer that binds DNA blunt ends to prevent processing of 3′ single-stranded DNA tails necessary for HDR repair. Cells were electroporated with RNP, an AAV-GFP homology donor and mRNA encoding either i53 (mRNA ORF shown in SEQ ID NO: 69), CYREN1, or CYREN2.
The effect of treatment with i53 and Nu7441 was compared for improving efficiency of HDR repair of the HBB locus. Cells were treated with different doses of Nu7441 or with mRNA encoding i53 (ORF shown by SEQ ID NO: 69).

[3] = system: HBB gene locus in CD34-expressing LT-HSPCs; assay: INDEL frequency and species at R02 cut site with DNA-PK inhibitors, NGS; assay type: cell-based, human
Method: (§1) Editing was performed as described above. However, the cells were electroporated with AAV.307 administered 1 hour prior to electroporation at a dose of 10,000 MOI. The cells were electroporated with compound 296 at a concentration ranging from 0.005 μM to 10 μM, with compound 984 at a concentration ranging from 0.005 μM to […], or with 1 μg i53 mRNA. Negative control cells were electroporated with RNP+AAV only or RNP only.
(§2) Edited cells were evaluated for viability as described above, and for incorporation of gene-edits at 2 days post-electroporation. […] The frequency of INDELs induced at the R02 cut site was also evaluated by NGS analysis.
The INDELs species identified for cells edited in Experiment 2 were further evaluated to determine frequency of repair by NHEJ or MMEJ repair pathways. An INDEL of 1 nt was considered due to NHEJ repair; a deletion of −9 nt was considered due to MMEJ repair based on the microhomology present on either side of the R02 cut site. Based on percentage of total reads corresponding to these INDEL species, the ratio of gene edits due to NHEJ and MMEJ repair was evaluated.

[4] = system: HBB gene locus in CD34-expressing LT-HSPCs; assay: HDR efficiency at HBB gene with R02 RNP+AAV.307 and DNA-PK inhibitors, NGS; assay type: cell-based, human
Method: as §1, §2

[5] = system: HBB gene locus in CD34-expressing LT-HSPCs; assay: HDR insertion of GFP donor at HBB gene locus with DNA-PK inhibitor (percentage of cells expressing GFP); assay type: cell-based, human; conditions: for level of HDR repair (cells expressing GFP): day 2 post-editing, FIG. 37A
Method: The effect of DNA-PK inhibition using Compound 296 was compared to the effect of 53BP1 inhibition using i53 for increased HDR repair of the HBB gene locus with donor DNA encoding GFP.
The efficiency of HDR for repair of the HBB gene with donor encoding GFP was determined by measuring the percentage of cells expressing GFP following electroporation.
(§3) Edited cells were evaluated for GFP fluorescence on day 2 post-editing using flow cytometry, and viability was determined via staining with Tryphan Blue.

CD34-expressing LT-HSPCs = assay: Viability of edited LT-HSPCs by Tryphan Blue staining; assay type: cell-based, human
Method: as §3, §2

[6] = target: DNA-PK catalytic subunit (DNA-PKcs) (Homo sapiens, UniProt P78527); conditions: reported, U.S. Pat. No. 9,592,232; cited from earlier work
genomic DNA = assay: GUIDE-Seq screen of candidate off-target sites; assay type: cell-based
Excerpt: The second approach was to screen candidate off-target sites using GUIDE-Seq (see, e.g., Tsai et al (2015) NAT BIOTECHNOL. 33:187). Based on this approach, 36 sites in the genomic DNA were identified as undergoing off-target CRISPR/Cas9 cleavage using the R02 gRNA.

CCCCCCNC(=O)Nc1ccc(S(=O)(=O)Nc2ccc(CCNC[C@H](O)COc3ccc(O)cc3)cc2)cc1 [L755,507]
HDR efficiency (improvement) [1]: no improvement in HDR efficiency

Cl.O=c1[nH]c([C@@H]2CCCN2)nc2c1oc1ccc(Cl)cc12 [XL413]
HDR efficiency vs RNP+AAV-only [2]: no improvement in HDR efficiency

CNC(=O)c1ccnc2c([C@H](C)CNc3cc(-c4cnc(C)nc4)ncn3)cccc12 [Compound 296]
frequency of INDELs, fold reduced compared to R02 RNP only ([3]; 0.37-10 μM): at least 4.6 fold
INDEL species due to MMEJ repair (−9 nt deletion) ([3]; Experiment 2, FIG. 38D): only a modest reduction
fold decrease in INDELs due to NHEJ repair (INDEL of 1 nt) ([3]; Experiment 2, FIG. 38D): ≤ 30 fold
HDR efficiency ([4]; 3.3 μM, R02 RNP+AAV.307): 80%
HDR efficiency, fold higher than R02 RNP+AAV only ([4]; 0.37-10 μM): at least 1.6 fold
level of HDR repair ([4]; 0.37-10 M, R02 RNP+AAV.307, FIGS. 38A-38B): ≥ 70%
level of HDR repair vs i53 mRNA ([5]; 1.1 μM, 3.3 μM, or 10 μM, FIG. 37B): comparable to cells edited with i53 mRNA
level of HDR repair (cells expressing GFP) ([5]; 1.1 μM): 53.5%
level of HDR repair (cells expressing GFP) ([5]; 3.3 μM): 56.5%
level of HDR repair (cells expressing GFP) ([5]; 10 μM): 55.9%
viability of edited cells (CD34-expressing LT-HSPCs; AAV.307, each concentration used, Experiment 2, FIG. 38C): > 80%
viability of edited cells (CD34-expressing LT-HSPCs; GFP donor, each concentration evaluated (0.014 μM to 10 μM), FIG. 37A): > 80%
affinity and selectivity for DNA-PK [6]: high affinity and selectivity

[2H]c1nc(C)nc([2H])c1-c1cc(NC[C@@H](C)c2cccc3c(C(=O)NC)ccnc23)ncn1 [Compound 984]
frequency of INDELs, fold reduced compared to R02 RNP only ([3]; 3.3 μM or 10 μM, FIGS. 39A-39B): approximately 8 fold
HDR efficiency ([4]; 3.3 μM or 10 μM, R02 RNP+AAV.307, FIGS. 39A-39B): > 80%
level of HDR repair ([4]; 0.37-10 μM, FIGS. 39A-39B): high
viability following editing (CD34-expressing LT-HSPCs; particularly at minimal effective concentrations): good viability
affinity and selectivity for DNA-PK [6]: high affinity and selectivity

C[C@]1(c2nc3c(C(N)=O)cccc3[nH]2)CCCN1 [Veliparib]
HDR efficiency (improvement) [1]: no improvement in HDR efficiency

B1: R02 gRNA: sgRNA targeting the HBB locus, SEQ ID NO: 17 (spacer SEQ ID NO: 16) (nucleic acid)
guide: mC*mU*mU*rGrCrCrCrCrArCrArGrGrGrCrArGrUrArArGrUrUrUrUrArGrArGrCrUrArGrArArArUrArGrCrArArGrUrUrArArArArUrArArGrGrCrUrArGrUrCrCrGrUrUrArUrCrArArCrUrUrGrArArArArArGrUrGrGrCrArCrCrGrArGrUrCrGrGrUrGrCmU*mU*mU*rU
number of genomic sites identified as undergoing off-target CRISPR/Cas9 cleavage (genomic DNA): 36
